According to article PMC12362618, “Development of the First Small-Molecule Inhibitor Targeting Oncostatin M for Treatment of Breast Cancer” (Journal of Medicinal Chemistry, 2025):
Where “and” joins values, the source holds several entries; their conditions need not be identical. Identical values can stand only once. Entries after “also recorded” stand apart in the source; their conditions may differ.

Assays:
[1] = tested on: OSM-induced pSTAT3 in T47D human breast cancer cells; assay: pSTAT3 ELISA in T47D cells treated with OSM ± SMI; format: cell-based; conditions: T47D; SMI 10 μM + OSM 10 ng/mL, 30 min; ELISA; relative to +OSM, no-treatment blank subtracted
Method: To test the effect of SMIs in vitro, each SMI was incubated with OSM for a period of 1 h at 37 °C, and T47D and MDA-MB-231 human breast cancer cell lines were subsequently treated with OSM (10 ng/mL) and/or SMI-10 (10 μM) analogs for 30 min and measured for pSTAT3 levels via ELISA. The results of these assays are presented graphically in Figure and, for T47D cells, in Table as a percentage of reduction from +OSM alone. For phospho-STAT3 (pSTAT3) ELISAs, T47D MDA-MB-231, and MCF-7 cells were seeded in 12- or 24-well plates at 70–75% confluency and allowed to adhere overnight, after which cells were serum-starved with serum-free RPMI-1640 for 4 h. SMIs (10 μM in DMSO or serially diluted to specified concentrations from a 100 mM stock in DMSO) and human recombinant OSM (10 ng/mL; PeproTech; #300–10T-10UG) were incubated in serum-free RPMI-1640 medium for 1 h. After incubation, the SMI-10 analogs or SMI-10B13 and OSM were added to the serum-starved cells for 30 min. Immediately afterward, the cells were lysed using 1x PathScan Sandwich ELISA Lysis Buffer (Cell Signaling Technology; #7018S), collected, and stored at −20 °C. Lysates were analyzed for pSTAT3 levels using either the PathScan Phospho-STAT3 (Tyr705) Sandwich ELISA Antibody Pair kit (Cell Signaling Technology; #7146) or Human/Mouse Phospho-STAT3 (Y705) DuoSet IC ELISA (R&D Systems; DYC4607B), according to manufacture’s protocol. pSTAT3 expression was measured with absorbance at 450 nm and quantified by comparison relative to OSM-induced pSTAT3 levels. To calculate an IC50 for SMI-10B13, a standard curve was generated as described in the DuoSet IC ELISA datasheet to determine the concentration of pSTAT3.

[2] = molecular target: T1, OSM (Homo sapiens, UniProt P13725); assay: Fluorescence quenching assay of SMI binding to OSM; conditions: average of three independent replicates, errors at 95% confidence level, read-out: KD (OSM-SMI dissociation constant)
T1 sequence (P13725 26-252): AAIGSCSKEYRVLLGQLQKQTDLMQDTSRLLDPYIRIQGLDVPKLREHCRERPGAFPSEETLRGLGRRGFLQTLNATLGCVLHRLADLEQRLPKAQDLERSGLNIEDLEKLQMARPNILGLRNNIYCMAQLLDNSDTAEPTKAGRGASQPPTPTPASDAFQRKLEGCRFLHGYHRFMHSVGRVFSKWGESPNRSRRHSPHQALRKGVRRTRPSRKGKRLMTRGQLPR
Method: To perform fluorescence quenching assays, 2 mL of 1 μM OSM solution in polymethylmethacrylate cuvettes was prepared by dilution of a concentrated stock solution of recombinant OSM with buffer solution (100 mM sodium chloride, 50 mM sodium phosphate, 50 mM freshly added DTT, pH = 6.6). Cuvettes were titrated with 5 μL increments of a 1 mM small molecule stock solution in DMSO, with a cuvette titrated with an equivalent volume of DMSO as a control. […] In cases where little to no significant quenching was observed, the titration was supplemented with 2.5 μL increments of a 10 mM small molecule stock solution to increase the concentration delivered. The fluorescence intensity measurements were obtained on a Cary Eclipse spectrofluorometer equipped with a Xenon arc lamp. Fluorescence intensities were measured by exciting at 280 nm (4 nm slit width) and recording the emission from 345 to 355 nm with a photomultiplier tube voltage of 700 V, unless otherwise noted. Each titration point was normalized to OSM’s native fluorescence intensity, corrected by adding the decrease in fluorescence intensity caused by dilution with DMSO, and the average value of the three replicates for each point was plotted against concentration of small molecule delivered and fit to a modified Stern–Volmer function as described by Charlier and Plapp. Binding affinity (K D) values were obtained […] from the fitting routine. All curve-fitting analysis was performed in GraphPad Prism 8.0.

[3] = tested on: OSM-mediated signaling (pSTAT3, pAKT, pJNK, pERK) in T47D cells; assay: Immunoblot of OSM-mediated signaling in T47D cells; format: cell-based, human; conditions: SMI 10 μM, OSM 10 ng/mL, 30 min
Method: For immunoblot analysis, T47D breast cancer cells were treated and collected in the same manner as described above for the ELISA preparation. After lysate collection, samples were run on a 10% SDS-PAGE gel and transferred to a nitrocellulose membrane via semidry transfer. Blots were rinsed with DI H2O and allowed to completely dry at room temperature before blocking with LiCor Intercept PBS Blocking Buffer (LiCor, Lincoln, NE; Cat# 927-90001) for 1 h. After blocking, primary antibodies (1:1000) suspended in blocking buffer supplemented with 0.1% Tween were added, shaken at room temperature for 1 h, and stored at 4 °C overnight. Membranes were then washed 6 times for 5 minutes each with 1X PBS supplemented with 0.5% Tween while shaking at room temperature, and secondary antibodies (1:15,000) were applied and incubated for 1 h. Afterward, membranes were washed as previously described above and imaged at 700 nm using the LiCor Odyssey CLx Imaging System. Quantification of immunoblots was performed using the LiCor Image Studio software, normalizing to β-Actin, and calculating relative fold change compared to nontreated samples. Antibodies used included phospho-STAT3 (Y705) (Cell Signaling Technology, Danvers, MA; cat. no. 9145), phospho-AKT (S473) (Cell Signaling Technology, Danvers, MA; cat. no. 4060), phospho-JNK ([…]/[…]) (Cell Signaling Technology, Danvers, MA; cat. no. 4668), phospho-ERK (T202/Y204) (Cell Signaling Technology, Danvers, MA; cat. no. 9101), β-Actin (Cell Signaling Technology; cat. no. 3700), and donkey antirabbit IRDye 800CW (LiCor, Lincoln, NE; Cat# 925-32213).

SMILES	Relative pSTAT3 Levels (Table 1, SMI-10A-10J) [1] [%]	Kd [2]	Relative pSTAT3 Levels (Table 2, SMI-10B analogs) [1] [%]	Inhibition of OSM-mediated signaling cascades by immunoblot (words) [3]	Inhibition of OSM-mediated signaling cascades by immunoblot (words) ([3]; listed as 10B8)
COC(=O)c1cc(-c2ccc3c(c2)OCO3)c(-c2ccc3c(c2)OCO3)o1 [SMI-10A, Methyl 4,5-Bis(benzo[d][1,3]dioxol-5-yl)furan-2-carboxylate]	84.7	29.6 ± 5.6 µM			
COc1ccc(-c2cc(/C=C/C(=O)O)oc2-c2ccc(OC)c(OC)c2)cc1OC [SMI-10B1, (E)-3-(4,5-Bis(3,4-dimethoxyphenyl)furan-2-yl)acrylic Acid]		18.4 ± 1.3 µM	62.35		
COc1ccc(-c2cc(/C=C/C(=O)O)oc2-c2ccc(OC)c(O)c2)cc1O [SMI-10B2, (E)-3-(4,5-Bis(3-hydroxy-4-methoxyphenyl)furan-2-yl)acrylic Acid]		17.5 ± 1.2 µM	56.66		
COc1cc(-c2cc(/C=C/C(=O)O)oc2-c2ccc(O)c(OC)c2)ccc1O [SMI-10B3, (E)-3-(4,5-Bis(4-hydroxy-3-methoxyphenyl)furan-2-yl)acrylic Acid]		18.5 ± 1.7 µM	67.12		
O=C(O)/C=C/c1cc(-c2ccc3c(c2)OCO3)c(-c2ccc3c(c2)OCO3)s1 [SMI-10B4, (E)-3-(4,5-Bis(benzo[d][1,3]dioxol-5-yl)thiophen-2-yl)acrylic Acid]		21.2 ± 1.8 µM	17.98		
O=C(O)/C=C/c1cc(-c2ccc3c(c2)OCO3)c(-c2ccc3c(c2)OCO3)[nH]1 [SMI-10B5, (E)-3-(4,5-Bis(benzo[d][1,3]dioxol-5-yl)-1H-pyrrol-2-yl)acrylic Acid]		9.2 ± 1.2 µM	19.89		
Cn1c(/C=C/C(=O)O)cc(-c2ccc3c(c2)OCO3)c1-c1ccc2c(c1)OCO2 [SMI-10B6, (E)-3-(4,5-Bis(benzo[d][1,3]dioxol-5-yl)-1-methyl-1H-pyrrol-2-yl)acrylic Acid]		10 ± 1 µM	20.43		
O=C(O)/C=C/c1cc(-c2ccc3c(c2)OCCO3)c(-c2ccc3c(c2)OCCO3)o1 [SMI-10B7, (E)-3-(4,5-Bis(2,3-dihydrobenzo[b][1,4]dioxin-6-yl)furan-2-yl)acrylic Acid]		6.6 µM and 6.64 µM	73.96		
O=C(O)/C=C/c1cc(-c2ccccc2)c(-c2ccc3c(c2)OCO3)o1 [SMI-10B8, (E)-3-(5-(Benzo[d][1,3]dioxol-5-yl)-4-phenylfuran-2-yl)acrylic Acid]		7.2 ± 0.8 µM	81.66	most effective	better at inhibiting pSTAT3, pAKT, pJNK, and pERK signaling
O=C(O)/C=C/c1cc(-c2ccc3c(c2)OCO3)c(-c2ccccc2)o1 [SMI-10B9, (E)-3-(4-(Benzo[d][1,3]dioxol-5-yl)-5-phenylfuran-2-yl)acrylic Acid]		18.2 ± 2 µM	30.98		
O=C(O)/C=C/c1cc(-c2ccccc2)c(-c2ccccc2)o1 [SMI-10B10, (E)-3-(4,5-Diphenylfuran-2-yl)acrylic Acid]		20.7 ± 1.9 µM	46.10		
O=C(O)/C=C/c1ccc(-c2ccc3c(c2)OCO3)o1 [SMI-10B11, (E)-3-(5-(Benzo[d][1,3]dioxol-5-yl)furan-2-yl)acrylic Acid]		20.1 ± 1.5 µM	42.43		
O=C(O)/C=C/c1cc(-c2ccc3c(c2)OCO3)co1 [SMI-10B12, (E)-3-(4-(Benzo[d][1,3]dioxol-5-yl)furan-2-yl)acrylic Acid]		66.7 ± 5.8 µM	34.26	most effective; also recorded: better at inhibiting pSTAT3, pAKT, pJNK, and pERK signaling	
O=C(O)CCc1cc(-c2ccc3c(c2)OCO3)c(-c2ccc3c(c2)OCO3)o1 [SMI-10B14, 3-(4,5-Bis(benzo[d][1,3]dioxol-5-yl)furan-2-yl)propanoic Acid]		9.1 ± 1.5 µM	79.65	most effective; also recorded: better at inhibiting pSTAT3, pAKT, pJNK, and pERK signaling	
O=C(O)CCc1cc(-c2ccc(F)c(F)c2)c(-c2ccc3c(c2)OCO3)o1 [SMI-10B15, 3-(5-(Benzo[d][1,3]dioxol-5-yl)-4-(3,4-difluorophenyl)furan-2-yl)propanoic Acid]		8.9 ± 2 µM	75.05		
O=C(O)CCc1cc(-c2cncnc2)c(-c2ccc3c(c2)OCO3)o1 [SMI-10B16, 3-(5-(Benzo[d][1,3]dioxol-5-yl)-4-(pyrimidin-5-yl)furan-2-yl)propanoic Acid]		16.5 ± 5.2 µM	41.62		
COc1ccc(-c2cc(CCC(=O)O)oc2-c2ccc3c(c2)OCO3)cc1 [SMI-10B17, 3-(5-(Benzo[d][1,3]dioxol-5-yl)-4-(4-methoxyphenyl)furan-2-yl)propanoic acid]		34.5 ± 6.9 µM	86.51		
O=C(O)CCc1cc(-c2ccc(Cl)c(Cl)c2)c(-c2ccc3c(c2)OCO3)o1 [SMI-10B18, 3-(5-(Benzo[d][1,3]dioxol-5-yl)-4-(3,4-dichlorophenyl)furan-2-yl)propanoic Acid]		13.5 ± 2.5 µM	35.00		
OCc1cc(-c2ccc3c(c2)OCO3)c(-c2ccc3c(c2)OCO3)o1 [SMI-10H, (4,5-Bis(benzo[d][1,3]dioxol-5-yl)furan-2-yl)methanol]	61.1	> 200 µM			
O=C(O)c1cc(-c2ccc3c(c2)OCO3)c(-c2ccc3c(c2)OCO3)o1 [SMI-10I, 4,5-Bis(benzo[d][1,3]dioxol-5-yl)furan-2-carboxylic Acid]	45.9	46.2 ± 7.2 µM			
O=C(NCc1ccccc1)c1cc(-c2ccc3c(c2)OCO3)c(-c2ccc3c(c2)OCO3)o1 [SMI-10J, 4,5-Bis(benzo[d][1,3]dioxol-5-yl)-N-benzylfuran-2-carboxamide]	8.6	30.5 ± 2.1 µM		significant reductions, near nontreated levels	
